These results are taken from patent US9776972B2, “Pyrazole derivatives as arginine methyltransferase inhibitors and uses thereof” (priority 2013, dated 2017).

Molecules are shown by their SMILES. Where a name gives a salt, the structure may show the parent alone.

The target of the first experiment is T1, Human CARM1 (PRMT4) (Homo sapiens, UniProt Q86X55).
T1 construct: Flag-CARM1-His; made in house; host or cells: HEK 293F cells (BacMam baculovirus)
T1 sequence (Q86X55 1-585 isoform Q86X55-1): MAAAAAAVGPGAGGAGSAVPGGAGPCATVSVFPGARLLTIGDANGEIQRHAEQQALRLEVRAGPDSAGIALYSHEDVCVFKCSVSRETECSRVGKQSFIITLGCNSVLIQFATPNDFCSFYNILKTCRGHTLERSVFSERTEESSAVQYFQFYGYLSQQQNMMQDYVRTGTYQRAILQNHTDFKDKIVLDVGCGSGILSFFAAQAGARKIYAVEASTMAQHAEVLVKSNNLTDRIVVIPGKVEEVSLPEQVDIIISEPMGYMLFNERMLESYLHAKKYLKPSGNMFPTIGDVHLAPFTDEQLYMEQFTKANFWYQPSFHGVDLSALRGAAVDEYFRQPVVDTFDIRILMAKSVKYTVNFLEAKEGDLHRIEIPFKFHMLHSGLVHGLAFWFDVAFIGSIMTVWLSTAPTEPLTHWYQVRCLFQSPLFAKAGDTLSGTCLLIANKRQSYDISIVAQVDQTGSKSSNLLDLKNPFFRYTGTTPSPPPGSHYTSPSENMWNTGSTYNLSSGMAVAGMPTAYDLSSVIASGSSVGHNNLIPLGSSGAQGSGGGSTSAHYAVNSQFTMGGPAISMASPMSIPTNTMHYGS
The experiment in a line: CARM1 Biochemical Assay (3H-SAM Flashplate, peptide substrate).
Conditions: not given
From the text:
S-adenosylmethionine (SAM), S-adenosylhomocysteine (SAH), bicine, Tween20, dimethylsulfoxide (DMSO), bovine skin gelatin (BSG), sodium butyrate and Tris(2-carboxyethyl)phosphine hydrochloride solution (TCEP) were purchased from Sigma-Aldrich at the highest level of purity possible. ^3H-SAM was purchase from American Radiolabeled Chemicals with a specific activity of 80 Ci/mmol. 384-well streptavidin Flashplates were purchased from PerkinElmer.
Peptide representative of human histone H3 residues 16-30 was synthesized with an N-terminal linker-affinity tag motif and a C-terminal amide cap by 21st Century Biochemicals. […] The sequence was Biot-Ahx-[…]-amide and contained a monomethylated arginine at position 26 (SEQ ID NO.: 14).
Recombinant baculovirus were generated according to Bac-to-Bac kit instructions (Life Technologies). […] Infections were carried out at 37° C. for 48 hours, harvested by centrifugation, and stored at −80° C. for purification.
Column was washed with 500 mM NaCl in buffer A and Flag-CARM1-His was eluted with 200 ug/ml FLAG peptide in buffer A. Pooled fractions were dialyzed in 20 mM Tris, 150 mM NaCl, 5% glycerol and 1 mM DTT, pH 7.8.
General Procedure for CARM1 Enzyme Assays on Peptide Substrates.
The assays were all performed in a buffer consisting of 20 mM Bicine (pH=7.6), 1 mM TCEP, 0.005% BSG, and 0.002% Tween 20, prepared on the day of use. […] DMSO (1 ul) was added to Columns 11, 12, 23, 24, rows A-H for the maximum signal control and 1 ul of SAH, a known product and inhibitor of CARM1, was added to columns 11, 12, 23, 24, rows I-P for the minimum signal control. A cocktail (40 ul) containing the CARM1 enzyme was added by Multidrop Combi (Thermo-Fisher). The compounds were allowed to incubate with CARM1 for 30 min at room temperature, then a cocktail (10 ul) containing ^3H-SAM and peptide was added to initiate the reaction (final volume=51 ul). […] The assays were stopped by the addition of non-radiolabeled SAM (10 ul) to a final concentration of 300 uM, which dilutes the ^3H-SAM to a level where its incorporation into the peptide substrate is no longer detectable. 50 ul of the reaction in the 384-well polypropylene plate was then transferred to a 384-well Flashplate and the biotinylated peptides were allowed to bind to the streptavidin surface for at least 1 hour before being washed once with 0.1% Tween20 in a Biotek ELx405 plate washer. The plates were then read in a PerkinElmer TopCount plate reader to measure the quantity of ^3H-labeled peptide bound to the Flashplate surface, measured as disintegrations per minute (dpm) or alternatively, referred to as counts per minute (cpm).
Where dpm=disintegrations per minute, cmpd=signal in assay well, and min and max are the respective minimum and maximum signal controls.
Where top and bottom are the normally allowed to float, but may be fixed at 100 or 0 respectively in a 3-parameter fit. The Hill Coefficient normally allowed to float but may also be fixed at 1 in a 3-parameter fit. Y is the % inhibition and X is the compound concentration.
`CNCCN(C)Cc1cnn(C)c1-c1ccc(OC(C)C)cc1` [Compound 244, hydrochloride] yielded an IC50 of under 0.1 µM.

Still in this experiment, the particulars now being: single experiment or average of multiple experiments.
Turning to `CN(CCN)Cc1c[nH]nc1-c1ccc(Cl)cc1F` [Compound 132], it took 2.11 µM to reach half-maximal inhibition (IC50).
In the case of `CN(CCN)Cc1c[nH]nc1-c1ccc(F)cc1F` [Compound 99], the half-inhibitory concentration (IC50) was determined as 7.61 µM.
Compound `CC(C)Oc1ccc(-c2n[nH]cc2CN(C)CCN)cc1F` [Compound 97] registered an IC50 of 0.511 µM.
`COc1ccccc1-c1n[nH]cc1CN(C)CCN` [Compound 109] showed an IC50 of 5.21 µM.
Consider `Cc1c(F)cccc1-c1n[nH]cc1CN(C)CCN` [Compound 129], for which the half-maximal inhibitory concentration (IC50) came to 2.42 µM.
The compound `Cc1ccc(-c2n[nH]cc2CN(C)CCN)cc1Cl` [Compound 126] returned an IC50 of 0.102 µM.
For the compound `CN(CCN)Cc1c[nH]nc1-c1ccc(Cl)c(F)c1` [Compound 118], the midpoint of inhibition, the IC50, lay at 0.114 µM.
With `CN(CCN)Cc1c[nH]nc1-c1ccc(C2CCOCC2)cc1` [Compound 98], the half-inhibitory concentration (IC50) was 0.439 µM.
As to `CC(O)c1ccc(-c2n[nH]cc2CN(C)CCN)cc1` (stereo not shown) [Compound 115], the IC50 is 3.53 µM.
Consider `CN(CCN)Cc1c[nH]nc1-c1cccc(Cl)c1F` [Compound 123], for which 1.87 µM corresponded to half-maximal inhibition (IC50).
The same measure, in the same setting: in the case of `CN(CCN)Cc1n[nH]cc1-c1ccc(Cl)cc1` [Compound 102] it was 1.06 µM.
`CN(CCN)Cc1c[nH]nc1-c1ccc(C2CC2)cc1` [Compound 116] gave an IC50 of 1.22 µM.
In turn, `CN(CCN)Cc1c[nH]nc1-c1ccc(C(F)(F)F)c(F)c1` [Compound 141] yielded an IC50 of 1.37 µM.
`CN(CCN)Cc1c[nH]nc1-c1cccc(Cl)c1` [Compound 122] returned an IC50 of 0.405 µM.
As for `CCN(CC)C(=O)c1ccc(-c2n[nH]cc2CN(C)CCN)cc1` [Compound 143], half-maximal inhibition (IC50) was put at 5.85 µM.
Compound `CN(CCN)Cc1c[nH]nc1-c1cc(Cl)cc(Cl)c1` [Compound 137] displayed an IC50 of 0.849 µM.
The same measure, in the same setting: in the case of `Cc1cc(Cl)ccc1-c1n[nH]cc1CN(C)CCN` [Compound 133] it was 4.27 µM.
In the case of `CC(C)c1ccc(-c2c[nH]nc2CN(C)CCN)cc1` [Compound 101], the IC50 came out at 4.76 µM.
In turn, `Cc1cc(C#N)ccc1-c1n[nH]cc1CN(C)CCN` [Compound 110] showed an IC50 of 8.77 µM.
On the same count and under the same terms, in the case of `COc1ccc(-c2n[nH]cc2CN(C)CCN)c(F)c1` [Compound 107] it was 2.86 µM.
For `COc1cc(Cl)cc(-c2n[nH]cc2CN(C)CCN)c1` [Compound 127], inhibition was half-maximal at 1.12 µM (IC50).
`CCNC(=O)c1ccc(-c2n[nH]cc2CN(C)CCN)cc1` [Compound 136] had a half-inhibitory concentration (IC50) of 2.07 µM.
In turn, `COc1cc(-c2n[nH]cc2CN(C)CCN)ccc1F` [Compound 142] registered an IC50 of 1.29 µM.
On the same count and under the same terms, in the case of `COc1cccc(-c2n[nH]cc2CN(C)CCN)c1` [Compound 130] it was 2.41 µM; in that of `CCn1ncc(CN(C)CCNC)c1-c1ccc(F)cc1` [Compound 7], 2.66 µM; in that of `CC(=O)c1cccc(-c2n[nH]cc2CN(C)CCN)c1` [Compound 112], 2.44 µM.
As to `CN(CCN)Cc1n[nH]cc1-c1ccc(OC2CC2)cc1` [Compound 119], half-maximal inhibition (IC50) was put at 0.441 µM.
Consider `COc1ccc(-c2n[nH]cc2CN(C)CCN)cc1F` [Compound 134], for which the concentration for half-maximal inhibition (IC50) worked out at 2.6 µM.
`Cc1ccc(-c2n[nH]cc2CN(C)CCN)c(F)c1` [Compound 108] came in with a concentration for half-maximal inhibition (IC50) of 1.53 µM.
Same read-out and setting: in the case of `CN(CCN)Cc1c[nH]nc1-c1ccc(C(F)(F)F)c(Cl)c1` [Compound 117] it was 0.602 µM.
Still for that read-out and setting: in the case of `CN(CCN)Cc1c[nH]nc1-c1cc(F)cc(F)c1` [Compound 111] it was 0.458 µM; in that of `Cc1cccc(-c2n[nH]cc2CN(C)CCN)c1` [Compound 131], 1.18 µM; in that of `CN(CCN)Cc1n[nH]cc1-c1ccc(C(F)(F)F)cc1` [Compound 103], 1.48 µM.
`CN(CCN)Cc1c[nH]nc1-c1ccc(OCC(F)(F)F)cc1` [Compound 96] registered a concentration for half-maximal inhibition (IC50) of 0.0765 µM.
Regarding `COc1ccc(-c2n[nH]cc2CN(C)CCN)cc1Cl` [Compound 125], the half-maximal inhibitory concentration (IC50) came out at 1.44 µM.
Consider `CN(CCN)Cc1n[nH]cc1-c1ccc(C2CC2)cc1` [Compound 104], for which the IC50 was 1.96 µM.
The same measure, in the same setting: in the case of `CN(CCN)Cc1n[nH]cc1-c1ccc(OC(F)(F)F)cc1` [Compound 105] it was 3.06 µM.
The compound `CCn1cc(CN(C)CCNC)c(-c2ccc(F)cc2)n1` [Compound 8] registered an IC50 of 3.46 µM.
For the compound `CN(CCN)Cc1n[nH]cc1-c1ccc(OC(F)F)cc1` [Compound 138], inhibition was half-maximal at 2.7 µM (IC50).
With `CN(CCN)Cc1c[nH]nc1-c1cc(F)cc(Cl)c1` [Compound 121], 0.216 µM corresponded to half-maximal inhibition (IC50).
`CC(C)Oc1ccc(-c2c[nH]nc2CN(C)CCN)cc1F` [Compound 144] displayed a half-maximal inhibitory concentration (IC50) of 4.62 µM.
Still for that read-out and setting: in the case of `CN(CCN)Cc1c[nH]nc1-c1ccc(OC2CC2)cc1` [Compound 114] it was 0.332 µM; in that of `CN(CCN)Cc1c[nH]nc1-c1ccc(F)c(Cl)c1` [Compound 124], 0.545 µM.
`CN(CCN)Cc1n[nH]cc1-c1ccc(C#N)cc1` [Compound 100] gave a half-inhibitory concentration (IC50) of 4.13 µM.
`CNCCN(C)Cc1cnn(C)c1-c1ccc(OC(C)C)cc1` [Compound 244, hydrochloride] came in with an IC50 of 0.0925 µM.

In general, IC50 refers to the concentration at which inhibition is half-maximal. A lower IC50 goes with higher potency.
